Like-named read-outs stand apart in the source and are kept apart here.
What was measured:
A-253 and Detroit 562 [1] = test: Cytotoxicity in head and neck cancer cell lines; type: cell-based; details: Homo sapiens; FIG. 39A; read-out: IC50 values, range over A-253 and Detroit 562
Procedure: A panel of dihydroquinoxalinones were tested in two head and neck cancer cell lines, A-253 and Detroit 562. A-253 cells are a human salivary epidermoid carcinoma cell line, whereas Detroit 562 is a head and neck squamous cell carcinoma (HNSCC). Oral cancer is the most common type of head and neck cancer and more than 90% of oral cancers are either oral or oropharyngeal squamous cell carcinoma (SCC). A major clinical dilemma is chemotherapy efficiency targeted for head and neck squamous cell carcinoma (HNSCC). The inability to successfully complete cancer treatment utilizing a standard surgical approach due to an advanced stage of HNSCC and/or resistance of SCC cells to conventional chemotherapy and/or radiotherapy leads to a continuous search for new compounds with cytostatic activity and minor side effects.
FIGS. 39B and 39C illustrate the graphical representation of the data. […] For example, at treatment levels as low of 0.5 nM, 12k was able to prevent head and neck cancer cell proliferation almost completely, whereas it required 5 nM of 17ya to achieve similar antiproliferation.

MDA-MB-231 = test: Cytotoxicity assay (MTS, 72 h); type: cell-based; details: Homo sapiens
[2] = Pharmacokinetic evaluation of 12k in mice; type: in vivo, NSG mice; details: female, mouse, plasma; for half-life: NSG
Procedure: Female NSG mice at 7 to 9 weeks of age were used in pharmacokinetic studies. Mice received a single dose of 4 mg/kg 12k intravenously (50% PEG300:50% saline) or 10 mg/kg orally (90% PEG300:10% saline). Blood of animals (n=3) was collected in heparinized tubes via terminal intracardiac blood collection at predefined time points (0.08, 0.25, 0.5, 1, 3, 6, 12, 24 h) and plasma was immediately separated by centrifugation (10,000 rpm for 10 min at 4° C.) and stored at −80° C. until analysis.

M14 = test: Cytotoxicity assay (MTS, 72 h); details: Homo sapiens, M14, read-out: IC50 (nM) Melanoma Cancer M14
in vitro [3] = details: human, liver microsomes
A-253 and Detroit 562 [4] = test: Western blot of apoptosis markers, head and neck cancer; type: cell-based, human; details: 100 nM, 72 hours
From the text: FIG. 42A illustrates that compound 12k induces apoptosis in the A-253 cell line. FIG. 42B illustrates that compound 12k induces apoptosis in the Detroit 562 cell line.

A375 = test: Cytotoxicity assay (MTS, 72 h); details: Homo sapiens, A-375, read-out: IC50 (nM) Melanoma Cancer A375, Table 6;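 further: compounds tested from 0.1 nM up to 3 µM in four replicate wells, with absorbance read at 490 nm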
in vitro [5] = details: mouse, liver microsomes
A-253 cells = test: Colony formation, head and neck cancer; type: cell-based, human
Procedure: (§1) FIG. 41A illustrates the effect of compound 12k on colony formation in the A-253 cell line. FIG. 41B illustrates the effect of compound 12k on colony formation in the Detroit 562 cell line. Colony formation experiments were performed as described elsewhere herein.

Detroit 562 cells = test: Colony formation, head and neck cancer; type: cell-based, human
Procedure: as §1

Mia PaCa-2 [6] = test: Cytotoxicity assay (MTS, 72 h); type: cell-based; details: Homo sapiens
PC3/TxR = test: Cytotoxicity assay (MTS, 72 h); type: cell-based; details: Homo sapiens, Table 6, paclitaxel-resistant, read-out: IC50 (nM) Prostate cancer PC3/TxR
Procedure: Biology. Cell culture and Reagents. […] MIA Paca-2 pancreatic cancer cells were cultured in media also supplemented with 2.5% horse serum. PANC-1 and PC-3 were cultured in RPMI 1640 medium (Gibco, Carlsbad, Calif.) supplemented with 10% FBS and 1% antibiotic/antimycotic mixture. […] For biological experiments, pyrimidine dihydroquinoxalinone derivatives were dissolved in DMSO to create 20 mM stock solutions and stored at −20° C. until use.
(§2) Cytotoxicity Assay. […] Each experiment consisted of four replicates.

[7] = system: PC-3/TxR xenograft tumors; test: Subcutaneous PC-3/TxR xenograft model; type: in vivo
MDA-MB-453 = test: Cytotoxicity assay (MTS, 72 h); type: cell-based, human; details: Homo sapiens, MDA-MB-453; Table 6; read-out: IC50 (nM) Breast Cancer MDA-MB-453
in vivo = details: male, NSG, mouse, brain/plasma, iv, 4 mg/kg
PANC-1 [8] = test: Cytotoxicity assay (MTS, 72 h); type: cell-based; details: Homo sapiens
Procedure: Mia PaCa-2 and PANC-1 cells were seeded in 96-well plates at 4000 and 5000 cells per well, respectively.
as §2

PC3 = test: Cytotoxicity assay (MTS, 72 h); type: cell-based; details: Homo sapiens, PC-3; Table 6; read-out: IC50 (nM) Prostate cancer PC3
From the text: as §2

A-253 and Detroit 562 [9] = test: Head and neck cancer cell proliferation (confluence %)
A375/TxR xenografts = test: In vivo A375/TxR melanoma xenograft model; parameters: species or system NSG mice
Mia PaCa-2 [10] = test: Colony formation assay (PDAC); type: cell-based, human; details: tested 1, 2.5, 5 nM
Procedure: Cells were seeded at 1000 cells per well in 6-well plates in triplicates and treated with vehicle control or 1-5 nmol/L test compounds for 11 to 14 days. The colonies were fixed with 100% methanol and stained with 0.5% crystal violet. Colony area was quantified with Image J software.

porcine brain tubulin = target: T1, porcine brain tubulin (Sus scrofa, UniProt P02550+P02554); test: Tubulin polymerization inhibitory assay (FIG. 29A); type: biochemical; details: 10 μM, 37° C.; DMSO control 0.3
T1 construct: tubulin mixture containing porcine brain tubulin (3 mg/mL); purchased Cytoskeleton, Inc. T-238P; host or cells: porcine brain
Procedure: Tubulin polymerization inhibitory assay: In vitro tubulin polymerization assay was carried out according to the manufacturers' instructions (Cytoskeleton). Briefly, 10 μM of 5v was added into tubulin protein (3 mg/mL, purity>99%), and the mixture was transferred into a microplate reader and incubated at 37° C. […] Colchicine and paclitaxel were used as positive controls. […] The assay was carried out in duplicate.

PANC-1 [11] = test: Colony formation assay (PDAC); type: cell-based, human; details: tested 1, 2.5, 5 nM
MDA-MB-231/TxR = test: Cytotoxicity assay (MTS, 72 h); type: cell-based; details: Homo sapiens, read-out: IC50 ± SEM (nM) MDA-MB-231/TxR, Table 2, paclitaxel-resistant
MDA-MB-231/VxR = test: Cytotoxicity assay (MTS, 72 h); type: cell-based; details: Homo sapiens, MDA-MB-231, read-out: IC50 ± SEM (nM) MDA-MB-231/VXR
[12] = target: T2, tubulin protein from bovine brain (Bos taurus, UniProt P81947+Q6B856); test: Tubulin polymerization assay (FIG. 5A); type: biochemical; details: 10 μM, cell-free
T2 construct: tubulin protein from bovine brain origin; purchased Cytoskeleton, Denver, Colo; host or cells: bovine brain
Procedure: Tubulin polymerization reaction was initiated by adding 100 μL of tubulin protein from bovine brain origin (3 mg/ml, Cytoskeleton, Denver, Colo.) into 10 μM of test compounds in general tubulin buffer (80 mM PIPES, 2.0 mM MgCl2, 0.5 mM EGTA, and 1 mM GTP) according to the manufacturer protocol. The reaction kinetics were recorded in every thirty seconds for 1 h at 37° C. and a microplate reader equipped with absorbance settings at 340 nm wavelength was used for this purpose. The experiment was performed in duplicates.

[13] = system: A2780/TxR ovarian cancer xenografts; test: Orthotopic A2780/TxR ovarian cancer xenograft model; details: paclitaxel 5 mg/kg IV
Mia PaCa-2 cells = test: Scratch migration assay (PDAC); type: cell-based, human; details: 5m 2 nM, PTX 4 nM, 48 h; listed as PTX
Procedure: The Mia PaCa-2 cells (25,000 cells/well) were seeded in 96-well plates and allowed to adhere overnight. At 80-90% confluence, scratch was made with a wound maker. After washing off the debris, medium was replaced and tested compounds were added. Cells were live monitored with IncuCyte and pictures obtained every 2 h. Compared with the control, the wound width of cells under different treatment conditions was quantified according to the endpoint width over starting point.

A549/TxR = test: cells; details: Homo sapiens, read-out: IC50 ± SEM (nM) A549/TxR
[14] = intravenous (4 mg/kg), NSG mice

T2 sequence (P81947 whole entry): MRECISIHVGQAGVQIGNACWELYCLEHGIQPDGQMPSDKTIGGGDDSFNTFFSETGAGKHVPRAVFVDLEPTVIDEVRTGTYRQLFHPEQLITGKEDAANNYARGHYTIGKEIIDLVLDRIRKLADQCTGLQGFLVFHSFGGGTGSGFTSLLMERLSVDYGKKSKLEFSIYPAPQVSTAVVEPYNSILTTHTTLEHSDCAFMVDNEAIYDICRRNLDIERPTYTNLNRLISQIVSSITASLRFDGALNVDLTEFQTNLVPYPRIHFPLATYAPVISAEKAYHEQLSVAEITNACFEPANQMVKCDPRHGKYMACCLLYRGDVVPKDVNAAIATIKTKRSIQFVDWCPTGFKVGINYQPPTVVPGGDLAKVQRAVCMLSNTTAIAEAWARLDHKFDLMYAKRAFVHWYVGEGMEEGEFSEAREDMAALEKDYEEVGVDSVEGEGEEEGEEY
T2 sequence (Q6B856 whole entry): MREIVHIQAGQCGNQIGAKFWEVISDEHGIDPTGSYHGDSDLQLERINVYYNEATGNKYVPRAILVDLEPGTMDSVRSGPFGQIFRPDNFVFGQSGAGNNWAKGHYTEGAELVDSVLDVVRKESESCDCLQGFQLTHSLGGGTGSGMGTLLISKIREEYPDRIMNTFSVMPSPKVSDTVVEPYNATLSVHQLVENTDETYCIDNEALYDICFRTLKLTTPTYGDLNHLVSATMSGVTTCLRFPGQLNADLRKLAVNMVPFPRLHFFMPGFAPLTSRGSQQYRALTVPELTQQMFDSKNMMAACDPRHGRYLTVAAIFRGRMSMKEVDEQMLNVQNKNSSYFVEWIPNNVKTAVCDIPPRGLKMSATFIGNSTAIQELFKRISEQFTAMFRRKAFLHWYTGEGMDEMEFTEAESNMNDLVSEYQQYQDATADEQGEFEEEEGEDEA
T1 sequence (P02550 whole entry): as the sequence (P81947 whole entry) above, with L136S, S232G, I265A, S340T, Q358E counted along it
T1 sequence (P02554 whole entry): as the sequence (Q6B856 whole entry) above, with T55A, M170V, S296A, I316V, E440G, G441E counted along it

## CNc1nc2c(c(N3CC(=O)Nc4cc(OC)ccc43)n1)CCC2 [Compound 12k, 7-methoxy-4-(2-(methylamino)-6,7-dihydro-5H-cyclopenta[d]pyrimidin-4-yl)-3,4-dihydroquinoxalin-2(1H)-one]
A-253 and Detroit 562 [1]
  IC50: 0.52 to 3.2 nM
MDA-MB-231; MDA-MB-231, read-out: IC50 (nM) Breast Cancer MDA-MB-231, Table 6
  IC50: 2.2 ± 1.5 nM
[2]; intravenous, 4 mg/kg, text b345, read-out: in vivo half-life
  half-life: 3.97 h
[2]; iv, 4 mg/kg, intravenous (4 mg/kg), NSG mice, read-out: t1/2 (converted)
  half-life: 3.97 h
[2]; po, 10 mg/kg, oral (10 mg/kg), NSG mice, read-out: t1/2 (converted)
  half-life: 5.97 h
[2]; [14]
  AUC: 2890 ng·h/mL
  Cmax: 1250 ng/mL
  Tmax: 0.0833 h
[2]; oral (10 mg/kg), NSG mice
  AUC: 136 ng·h/mL
  Cmax: 78.3 ng/mL
  Tmax: 0.167 h
  bioavailability: 2.02%
M14
  IC50: 0.7 ± 0.1 nM
In vitro [3]
  half-life at 1 μg/mL: > 5 h
  microsomal CLint at 1 μg/mL: < 2.31 µL/min/mg
A-253 and Detroit 562 [4]
  apoptotic markers c-PARP and c-cas 3: elevated levels of apoptotic markers
A375
  IC50: 1.2 ± 0.2 nM
In vitro [5]
  half-life at 1 μg/mL: > 5 h
  microsomal CLint at 1 μg/mL: < 2.31 µL/min/mg
A-253 cells
  concentration with near complete inhibition of colony formation: 1 nM
Detroit 562 cells
  concentration with near complete inhibition of colony formation: 2 nM
Mia PaCa-2 [6]; Table 6, read-out: IC50 (nM) Pancreatic cancer Mia PaCa-2
  IC50: 2.9 ± 0.5 nM
PC3/TxR
  IC50: 0.2 nM
[7]; 2.5 mg/kg i.v., 2 doses/week
  inhibition of tumor growth in volume (ex vivo) vs control: approximately 85.6%
  reduction of tumor weight vs control: 84.5%
[7]; 2.5 mg/kg twice per week
  tolerability / body weight: well tolerated
MDA-MB-453
  IC50: 0.9 ± 0.2 nM
In vivo
  Kp at 1 h: 0.45
PANC-1 [8]; Table 6, read-out: IC50 (nM) Pancreatic cancer PANC-1
  IC50: 2.8 ± 0.5 nM
PC3
  IC50: 0.5 ± 0.1 nM
A-253 and Detroit 562 [9]; A-253 and Detroit 562
  potency of 12k relative to compound 17ya: ~10 fold
A-253 and Detroit 562 [9]; confluence over 62 h
  treatment level preventing cell proliferation almost completely: 0.5 nM

## CC(=O)O[C@H]1C(=O)[C@@]2(C)[C@H]([C@H](OC(=O)c3ccccc3)[C@]3(O)C[C@H](OC(=O)[C@H](O)[C@@H](NC(=O)c4ccccc4)c4ccccc4)C(C)=C1C3(C)C)[C@]1(OC(C)=O)CO[C@@H]1C[C@@H]2O [Paclitaxel, reference compound]
A375/TxR xenografts; H&E and anti-human mitochondria IHC
  spontaneous lung metastasis: no effect on the lung spontaneous metastasis
A375/TxR xenografts; paclitaxel 4 mg/kg IV twice a week
  tumor-suppressive effect: no significant tumor-suppressive effect
A375/TxR xenografts; paclitaxel 10 mg/kg IV, 2 times per week
  effect on tumor growth: ineffective
MDA-MB-231; MDA-MB-231, read-out: IC50 ± SEM (nM) MDA-MB-231, Table 2
  IC50: 2.3 ± 0.4 nM
Mia PaCa-2 [10]
  dose at which colony formation was completely inhibited: 5 nM
Porcine brain tubulin
  A340 at which tubulin assembly stabilized: approximately 0.4
PANC-1 [11]
  dose with nearly complete inhibition of colony formation: 5 nM
MDA-MB-231/TxR
  IC50: > 50 nM
MDA-MB-231/VxR
  IC50: 3.4 ± 0.5 nM
Mia PaCa-2 [6]; Example 7, FIG. 20, read-out: calculated IC50, Mia PaCa-2 cells
  IC50: 2.5 nM
[12]
  effect on microtubule polymerization: polymerization enhancement
[7]; paclitaxel 10 mg/kg, 1 dose/week
  tumor weight reduction: insignificant tumor weight reduction
[13]
  effect on A2780/TxR model: limited effect
PANC-1 [8]; Example 7, FIG. 20, read-out: calculated IC50, PANC-1 cells
  IC50: 1.1 nM
Mia PaCa-2 cells
  cell migration / wound healing: inhibited cell migration over 48 hours
A549/TxR
  IC50: > 1000 nM

Source: patent US20230286995A1, “METABOLICALLY STABLE PYRIMIDINYL DIHYDROQUINOXALINONES AS TUBULIN POLYMERIZATION INHIBITORS” (UNIVERSITY OF TENNESSEE RESEARCH FOUNDATION, priority 2022, published 2023)
